Experimental findings from article PMC8286840, “Identifying SARS-CoV-2 antiviral compounds by screening for small molecule inhibitors of Nsp3 papain-like protease” (Biochemical Journal, 2021) are described below.

Structures can show the parent of a compound that is named as a salt. Where two headings read alike, the source gives them in different places.

Assay [1] has as its target T1, SARS-CoV-2 PLpro (nsp3 1564–1878) (Severe acute respiratory syndrome coronavirus 2, UniProt P0DTD1). Briefly: biochemical. More on the design: FRET-quenched peptide (Pro3) cleavage by PLpro, 10 min pre-incubation, slope over 20 min, normalised to no-compound control. Particulars: high concentration screen, read-out: % of control remaining.
Assay [2] addresses T1, SARS-CoV-2 PLpro (nsp3 1564–1878). Kind of assay: biochemical. Also noted: FRET-quenched peptide (Pro3) cleavage by PLpro, 10 min pre-incubation, slope over 20 min, normalised to no-compound control. Particulars: low concentration screen, read-out: % of control remaining.

On to `c1ccc2c(c1)[nH]c1cnccc12` [Norharmane], for which the remaining activity at 3.75 µM in assay [1] (Well no.=3262) was 98.5%. Moreover, the remaining activity at 1.25 µM in assay [2] (Well no.=3262) turned out to be 101%.
For `CNCCC=C1c2ccccc2CCc2ccccc21` [Nortriptyline hydrochloride], in assay [1] (Well no.=1097), the remaining activity at 3.75 µM was 96.6%. Further, in assay [2] (Well no.=1097), the remaining activity at 1.25 µM stood at 95.3%.
As to `COc1ccc2c(c1OC)C(=O)O[C@@H]2[C@H]1c2c(cc3c(c2OC)OCO3)CCN1C` [Noscapine hydrchloride], the remaining activity at 3.75 µM in assay [1] (Well no.=957) stood at 95.4%. In assay [2] (Well no.=957), the remaining activity at 1.25 µM was 93%.
With `COc1ccc2c(c1OC)C(=O)O[C@@H]2[C@H]1c2c(cc3c(c2OC)OCO3)CCN1C` [Noscapine], in assay [1] (Well no.=6613), the remaining activity at 3.75 µM is 106%. In assay [2] (Well no.=6613), the remaining activity at 1.25 µM is 106%.
With `COc1cc2c3c(c1OC)-c1ccccc1C[C@H]3N(C)CC2` [Nuciferine], the remaining activity at 3.75 µM in assay [1] (Well no.=8335) was 89%. Also, the remaining activity at 1.25 µM in assay [2] (Well no.=8335) was 95.2%.
Take `COc1ccc(C2=N[C@@H](c3ccc(Cl)cc3)[C@@H](c3ccc(Cl)cc3)N2C(=O)N2CCNC(=O)C2)c(OC(C)C)c1` [Nutlin (3)]: the remaining activity at 3.75 µM in assay [1] (Well no.=6356) worked out at 101%; in assay [1] (Well no.=7836), 99.3%. Further, the remaining activity at 1.25 µM stood at 98.9% in assay [2] (Well no.=6356) and 103% in assay [2] (Well no.=7836).
Take `COc1ccc(C2=N[C@@H](c3ccc(Cl)cc3)[C@@H](c3ccc(Cl)cc3)N2C(=O)N2CCNC(=O)C2)c(OC(C)C)c1` [Nutlin (3a)]: the remaining activity at 3.75 µM turned out to be 93.4% in assay [1] (Well no.=6440) and 93.2% in assay [1] (Well no.=7746). The remaining activity at 1.25 µM in assay [2] (Well no.=6440) was 92.9%; in assay [2] (Well no.=7746), 92%.
As for `COc1ccc(C2=N[C@H](c3ccc(Cl)cc3)[C@H](c3ccc(Cl)cc3)N2C(=O)N2CCNC(=O)C2)c(OC(C)C)c1` [Nutlin (3b)], the remaining activity at 3.75 µM in assay [1] (Well no.=6742) was 100%. Besides, the values for the remaining activity at 1.25 µM in assay [2] (Well no.=6742) and in assay [2] (Well no.=8362) were 100% and 101%, respectively.
Take `COc1ccc(C2=N[C@@H](c3ccc(Cl)cc3)[C@@H](c3ccc(Cl)cc3)N2C(=O)N2CCNC(=O)C2)c(OC(C)C)c1` [Nutlin-3]: in assay [1] (Well no.=4621), the remaining activity at 3.75 µM turned out to be 108%. Moreover, in assay [2] (Well no.=4621), the remaining activity at 1.25 µM came out at 104%.
Take `CC(CCc1ccccc1)NC(C)C(O)c1ccc(O)cc1` (stereo not shown) [Nylidrin hydrochloride]: the remaining activity at 3.75 µM in assay [1] (Well no.=940) worked out at 95.1%. Besides, the remaining activity at 1.25 µM in assay [2] (Well no.=940) amounted to 96%.
`C[C@@H]1[C@H](O)[C@@H](C)/C=C/C=C/CC/C=C/C=C/C=C/C=C/[C@H](O[C@@H]2O[C@H](C)[C@@H](O)[C@H](N)[C@@H]2O)C[C@@H]2O[C@](O)(C[C@@H](O)[C@H](O)CC[C@@H](O)C[C@@H](O)C[C@@H](O)CC(=O)O[C@H]1C)C[C@H](O)[C@H]2C(=O)O` [Nystatin]: in assay [1] (Well no.=2045), the remaining activity at 3.75 µM came out at 100%. In assay [2] (Well no.=2045), the remaining activity at 1.25 µM was 97.9%.
As to `O=C(NCCO)c1cc(C(=O)NCCO)cc(C(=O)NCCO)c1` [N~1~,N~3~,N~5~-tris(2-hydroxyethyl)-1,3,5-benzenetricarboxamide], the remaining activity at 3.75 µM in assay [1] (Well no.=6029) came to 99.9%. For the same molecule, in assay [2] (Well no.=6029), the remaining activity at 1.25 µM worked out at 96.8%.
Consider `CC1(C)CC(NC(=O)C(=O)Nc2ccc(Cl)cc2)CC(C)(C)N1` [N~1~-(4-chlorophenyl)-N~2~-(2,2,6,6-tetramethyl-4-piperidinyl)ethanediamide], for which the remaining activity at 3.75 µM in assay [1] (Well no.=6039) turned out to be 101%. Further, the remaining activity at 1.25 µM in assay [2] (Well no.=6039) was 97.6%.
For the molecule `Nc1nc(OCc2ccccc2)c2nc[nH]c2n1` [O6-benzylguanine], the remaining activity at 3.75 µM in assay [1] (Well no.=123) was 105%. For the same molecule, the remaining activity at 1.25 µM in assay [2] (Well no.=123) turned out to be 106%.
Regarding `NOCC(=O)O` [O-(Carboxymethyl)hydroxylamine hemihydrochloride], the remaining activity at 3.75 µM in assay [1] (Well no.=15) came out at 102%. The remaining activity at 1.25 µM in assay [2] (Well no.=15) came to 103%.
Regarding `CC(=O)OC[C@H](N)C(=O)O` [O-Acetylserine], in assay [1] (Well no.=6965), the remaining activity at 3.75 µM is 104%. Also, the remaining activity at 1.25 µM in assay [2] (Well no.=6965) worked out at 101%.
For the molecule `COc1ccc2[nH]cc(CCN)c2c1` [O-Methylserotonin hydrochloride], the remaining activity at 3.75 µM in assay [1] (Well no.=1076) is 97%. Besides, the remaining activity at 1.25 µM in assay [2] (Well no.=1076) amounted to 94%.
`N[C@@H](COP(=O)(O)O)C(=O)O` [O-Phospho-L-serine]: the remaining activity at 3.75 µM came to 95.7% in assay [1] (Well no.=806), 99.4% in assay [1] (Well no.=6867) and 101% in assay [1] (Well no.=6956). Also, the remaining activity at 1.25 µM in assay [2] (Well no.=806) was 98%; in assay [2] (Well no.=6867), 99.1%; in assay [2] (Well no.=6956), 101%.
For the molecule `CCN(CCCCO)C(C)Cc1ccc(O)cc1` (stereo not shown) [O-desmethyl Mebeverine alcohol (hydrochloride)], the remaining activity at 3.75 µM in assay [1] (Well no.=8489) came out at 99.4%. Besides, the remaining activity at 1.25 µM in assay [2] (Well no.=8489) stood at 94.7%.
Consider `Cc1c(Cc2ccc3ccccc3n2)c2cc(F)ccc2n1CC(=O)O` [OC000459], for which, in assay [1] (Well no.=7765), the remaining activity at 3.75 µM was found to be 105%. In assay [2] (Well no.=7765), the remaining activity at 1.25 µM came to 108%.
Turning to `COc1cc(C(=O)N(CCCc2ccccc2)Cc2ccc(CC(=O)O)cc2)cc(OC)c1C` [ONO-7300243], the remaining activity at 3.75 µM in assay [1] (Well no.=7711) stood at 103%. For the same molecule, the remaining activity at 1.25 µM in assay [2] (Well no.=7711) was found to be 101%.
Consider `CC(C(=O)Nc1cc(C#N)ccc1CCCC(=O)O)c1ccc(F)c2ccccc12` (stereo not shown) [ONO-AE3-208], for which the remaining activity at 3.75 µM in assay [1] (Well no.=7279) came out at 94.1%. In addition, the remaining activity at 1.25 µM in assay [2] (Well no.=7279) came to 98.9%.
In the case of `COc1ccc(C[C@H](NC(=O)[C@H](C)NC(=O)CN2CCOCC2)C(=O)N[C@@H](Cc2ccccc2)C(=O)[C@@]2(C)CO2)cc1` [ONX-0914 (PR-957)], in assay [1] (Well no.=9126), the remaining activity at 3.75 µM stood at 93.6%. Besides, the remaining activity at 1.25 µM in assay [2] (Well no.=9126) turned out to be 90%.
As to `COc1cccc2cc(-c3nc([C@H]4CC[C@H](C(=O)O)CC4)n4ncnc(N)c34)[nH]c12` [OSI-027], in assay [1] (Well no.=4960), the remaining activity at 3.75 µM came to 95.6%. For the same molecule, the remaining activity at 1.25 µM in assay [2] (Well no.=4960) turned out to be 99.2%.
`C#Cc1cccc(Nc2ncnc3cc(OCCOC)c(OCCO)cc23)c1` [OSI-420]: the remaining activity at 3.75 µM in assay [1] (Well no.=4822) came to 101%; in assay [1] (Well no.=5152), 97.4%. Besides, the remaining activity at 1.25 µM in assay [2] (Well no.=4822) stood at 99.2%; in assay [2] (Well no.=5152), 102%.
For `O=C(Nc1ccc(OC(F)(F)F)cc1)c1sccc1NCc1ccnc2ccccc12` [OSI-930], the remaining activity at 3.75 µM in assay [1] (Well no.=4755) is 103%. Further, the remaining activity at 1.25 µM in assay [2] (Well no.=4755) came out at 105%.
On to `CNC(=O)CCc1cc(-c2ccc(-c3ccc(C(F)(F)F)cc3)cc2)nn1-c1ccc(N2CCNCC2)cc1` [OSU-T315], for which, in assay [1] (Well no.=7022), the remaining activity at 3.75 µM amounted to 93.8%. For the same molecule, the remaining activity at 1.25 µM in assay [2] (Well no.=7022) was found to be 92.9%.
For `COC1=CC(c2cc3ccccc3[nH]2)=N/C1=C\c1[nH]c(C)cc1C` [Obatoclax mesylate (GX15-070)], in assay [1] (Well no.=4619), the remaining activity at 3.75 µM was found to be 98.7%. Moreover, in assay [2] (Well no.=4619), the remaining activity at 1.25 µM worked out at 95.3%.
